Assay results as given in patent US10160780B2, “Compound extracted from husk and fruit stem of Xanthoceras sobifolia and its extracting method and use thereof” (priority 2004, dated 2018).
≈ marks a conversion by molar mass, not a printed value. Where two headings read alike, the source gives them in different places.

Assays:
mice [1] = test: regular static hypoxia tolerance in an isolated environment (death time); assay type: in vivo; settings: oral 2 mg twice a day for 6 days
Experimental: The above obtained Xanthoceraside was for the test of regular static hypoxia tolerance in an isolated environment to observe the effect of Xanthoceraside on death time of animals.
The test consisted of two sections. Each section was divided into two groups: control and treatment. There were three measurements to calculate death time of the mice. Those in treatment group took oral dosing of 2 mg of Xanthoceraside twice a day for 6 days. The three parameters are: • The average death time of whole group (xt); • The super average death time (xp): based on the average death time of the control group (xc), calculate the death time (xp), which is greater than the control group (xc), and calculate the mean. • The delayed death time (xp-xc): the super average death time (xp) minus the control group (xc) and calculated the mean.

mice [2] = test: Y maze test, memory retrieval impairment of mice induced by scopolamine; assay type: in vivo; settings: scopolamine 2.0 mg/kg, then injection 6 mg/kg, Y maze after 20 minutes
Experimental: Mice were trained based on the stochastic three arms Y maze test, to screen those who had less than 30 errors of alternation before they continuously made correct choices for 10 times. After relaxed for 24 hours, the selected ones were randomized into two groups and for all of them scopolamine was injected into celiac at the ratio of 2.0 mg/kg mice weight to cause their learning and memory impairment. After 15 minutes, the mice in the treatment group were given an injection of total dose of Xanthoceraside at ratio of 6 mg/kg mice weight, while those in the control group were given an injection of the same amount of normal saline. After 20 minutes, they were arranged respectively into Y maze and the number of incorrect alternations before they made correct choices continuously for 10 times.

mice [3] = test: Y maze test of learning and memory ability of mice; assay type: in vivo; settings: fed 9 mg/kg, Y maze after 40 minutes, incorrect alternations before 10 continuous correct choices
Experimental: 20 female and male mice weighted 18˜23 g were selected and divided evenly into two groups. The treatment group was fed with total dose of Xanthoceraside at the ratio of 9 mg/kg mice weight, and the control group was fed with the same amount of normal saline. After 40 minutes, they were put into Y maze respectively for performance observation. The number of incorrect alternations for a mice were recorded before it made correct choices continuously for 10 times. If errors more than 30, cutting the value to 30.

Hela cervical cancer = test: anti-tumor activity in vitro, SRB; assay type: cell-based, human
Excerpt: (§1) Take Xanthoceraside derived from the example 3 to do a test on tumor cell in vitro.

HL-60 human leukemia = test: anti-tumor activity in vitro, MTT; assay type: cell-based
Excerpt: as §1

[4] = system: BGC-823 human gastric cancer; test: anti-tumor activity in vitro, SRB; assay type: cell-based; settings: BGC-823, SRB
Excerpt: as §1

[5] = system: Bel-7402 human liver cancer; test: anti-tumor activity in vitro, SRB; assay type: cell-based; settings: Bel-7402, SRB
Excerpt: as §1

[6] = system: MDA-MB-435 human breast cancer; test: anti-tumor activity in vitro, SRB; assay type: cell-based; settings: MDA-MB-435, SRB
Excerpt: as §1

[7] = system: PC-3MIE8 human prostate cancer; test: anti-tumor activity in vitro, SRB; assay type: cell-based; settings: PC-3MIE8, SRB
Excerpt: as §1

C/C=C(/C)C(=O)O[C@H]1[C@H](OC(=O)/C(C)=C\C)C2(CO)C(CC1(C)C)C1=CCC3[C@@]4(C)CC[C@H](OC5OC(C(=O)O)C(O)C(OC6OC(CO)C(O)C6O)C5OC5OC(CO)C(O)C(O)C5O)C(C)(C)C4CC[C@@]3(C)[C@]1(C)[C@@H](O)[C@H]2O (stereo partly drawn) [Xanthoceraside, 3-O-(α-L-arabinofuranosyl(1→3)-β-D-galactopyranosyl(1→2))-β-D-glucuronopyranosyl-21,22-diangeloyl-R1-barrigenol]
xp − xc, delayed death time (mice [1]; First section): 14.59 ± 14.83(17) min | xp, super average death time (mice [1]; First section): 56.51 ± 14.59(17) min | xt, average death time of whole group (mice [1]; First section): 41.84 ± 15.35(30) min | xp − xc, delayed death time (mice [1]; Second section): 8.40 ± 4.94(33) min | xp, super average death time (mice [1]; Second section): 33.40 ± 4.94(33) min | xt, average death time of whole group (mice [1]; Second section): 31.55 ± 6.68(41) min | Error frequency (X ± SD) (mice [2]): 4.0 ± 1.5 | Error frequency (X ± SD) (mice [3]): 6.9 ± 2.3 | Inhibition ratio (%) (Hela cervical cancer; 0.5 μg/ml): −12.72% | Inhibition ratio (%) (Hela cervical cancer; 5.0 μg/ml): −4.05% | Inhibition ratio (%) (Hela cervical cancer; 50.0 μg/ml): 95.49% | IC50 (Hela cervical cancer; Homo sapiens): 34.2 µg/mL (≈ 30 µM) | IC50 (HL-60 human leukemia; HL-60, MTT): 41.29 µg/mL (≈ 36.2 µM) | Inhibition ratio (%) (HL-60 human leukemia; HL-60, MTT, 0.5 μg/ml): 9.34% | Inhibition ratio (%) (HL-60 human leukemia; HL-60, MTT, 5.0 μg/ml): 17.68% | Inhibition ratio (%) (HL-60 human leukemia; HL-60, MTT, 50.0 μg/ml): 56.90% | IC50 (HL-60 human leukemia; Homo sapiens, HL-60, HL-60, MTT, read-out: IC50): 41.9 µg/mL (≈ 36.7 µM) | Inhibition ratio (%) ([4]; 0.5 μg/ml): −11.71% | Inhibition ratio (%) ([4]; 5.0 μg/ml): −5.92% | Inhibition ratio (%) ([4]; 50.0 μg/ml): 92.45% | IC50 ([4]; Homo sapiens): 40.2 µg/mL (≈ 35.3 µM) | Inhibition ratio (%) ([5]; 0.5 μg/ml): −9.78% | Inhibition ratio (%) ([5]; 5.0 μg/ml): −1.24% | Inhibition ratio (%) ([5]; 50.0 μg/ml): 92.96% | IC50 ([5]; Homo sapiens): 39.3 µg/mL (≈ 34.5 µM) | IC50 ([6]; Homo sapiens): 18.6 µg/mL (≈ 16.3 µM) | Inhibition ratio (%) ([6]; 0.5 μg/ml): −4.50% | Inhibition ratio (%) ([6]; 5.0 μg/ml): 2.92% | Inhibition ratio (%) ([6]; 50.0 μg/ml): 93.14% | IC50 ([7]; Homo sapiens): 41 µg/mL (≈ 35.9 µM) | Inhibition ratio (%) ([7]; 0.5 μg/ml): −13.90% | Inhibition ratio (%) ([7]; 5.0 μg/ml): −7.63% | Inhibition ratio (%) ([7]; 50.0 μg/ml): 92.03%
